According to paper PMC6099693, “Design, Synthesis, and In Vitro Evaluation of Novel Histone H3 Peptide-Based LSD1 Inactivators Incorporating α,α-Disubstituted Amino Acids with γ-Turn-Inducing Structures” (Molecules : A Journal of Synthetic Chemistry and Natural …, 2018):
*1 amine or outer side, *2 acyl side, *3 side chain or, on linkers, in order; H or OH if unused. Where a SMILES comes first, the peptide text is derived from it. [ ]: non-standard residue; d: D form. Lys((1R,2S)-2-Ph-cPr) = N[C@@H](CCCCN[C@@H]1C[C@H]1c1ccccc1)C(=O)O; X1 = O=C(C1(N[*:1])C2CC3CC(C2)CC1C3)[*:2]; Ac6c = NC1(C(=O)O)CCCCC1; Aib = CC(C)(N)C(=O)O

How the values were obtained:
Format in all cases: biochemical
MAO-A = target: T1, MAO-A (Homo sapiens, UniProt P21397); experiment: MAO-Glo assay, MAO-A inhibitory activity; conditions: for IC50: Promega V1401, MAO-A 18 units/mL, substrate 160 µM, room temperature, 60 min, chemiluminescence, means ± S.D. of at least three experiments
T1 construct: purchased Sigma-Aldrich
T1 sequence (P21397 1-527): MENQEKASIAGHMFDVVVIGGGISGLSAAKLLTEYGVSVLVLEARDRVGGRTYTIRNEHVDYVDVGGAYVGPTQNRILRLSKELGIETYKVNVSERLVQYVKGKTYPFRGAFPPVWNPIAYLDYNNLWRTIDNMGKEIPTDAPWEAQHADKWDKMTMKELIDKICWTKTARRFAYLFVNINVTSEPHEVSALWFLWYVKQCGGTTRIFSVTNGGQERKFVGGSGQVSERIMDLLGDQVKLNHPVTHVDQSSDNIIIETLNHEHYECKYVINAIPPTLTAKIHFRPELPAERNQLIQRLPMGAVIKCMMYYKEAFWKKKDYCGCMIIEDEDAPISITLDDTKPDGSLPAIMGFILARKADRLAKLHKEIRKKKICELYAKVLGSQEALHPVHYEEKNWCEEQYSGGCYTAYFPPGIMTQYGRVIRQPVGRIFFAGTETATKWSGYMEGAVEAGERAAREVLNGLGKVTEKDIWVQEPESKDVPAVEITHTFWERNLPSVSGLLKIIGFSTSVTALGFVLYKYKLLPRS
Experimental: (§1) We assayed for the LSD1 inhibitory activities of novel peptides 2a–c. The assay was performed with an LSD1 Fluorometric Drug Discovery Kit (Enzo Life Sciences, New York, NY, USA, BML-AK544-0001). […] Next, we examined the time-dependency of LSD1 inhibition by peptides 2a–c. […] We also assayed for the inhibitory activities of monoamine oxidases (MAOs), which are FAD-dependent oxidases associated with neurotransmitter metabolism, to investigate the selectivity toward LSD1. For this investigation, we used a MAO-Glo^TM Assay System (Promega, Madison, WI, USA, V1401).
(§2) Assays for MAO inhibitory activity were carried out according to the supplier’s protocol using a MAO-Glo^TM Assay System (Promega, V1401). […] Reactions were stopped after 60 min by adding reconstituted Luciferin Detection Reagent (50 µL/well). Then, 20 min after the addition of this reagent, the chemiluminescence of the wells was measured with a 2030 ARVO^TM X3 Multilabel Reader (PerkinElmer). For data processing, the same procedure as that for LSD1 inhibitory activity was used.

LSD1 = target: T2, LSD1 (Homo sapiens, UniProt O60341); experiment: LSD1 Fluorometric Drug Discovery Kit, LSD1 inhibitory activity; conditions: for IC50: Enzo BML-AK544-0001 kit, 15 min pre-incubation with LSD1 (0.5 µg/well), room temperature, H3K4me2 peptide 20 µM, 30 min, fluorescence 540/590 nm, means ± S.D. of at least three experiments; for LSD1 inhibitory activity: comparison within Table 1
T2 construct: purchased Enzo Life Sciences BML-AK544-0001
Experimental: The assay was performed with an LSD1 Fluorometric Drug Discovery Kit (Enzo Life Sciences, New York, NY, USA, BML-AK544-0001). […] We also assayed for the inhibitory activities of monoamine oxidases (MAOs), which are FAD-dependent oxidases associated with neurotransmitter metabolism, to investigate the selectivity toward LSD1. For this investigation, we used a MAO-Glo^TM Assay System (Promega, Madison, WI, USA, V1401).
Inhibitors were pre-incubated with LSD1 (0.5 µg/well; room temperature; 15 min) before reactions were initiated by the addition of H3K4me2 peptide (2.3 µg/well, 20 µM) into all wells except the blank. After incubation (room temperature; 30 min), CeLLestial^TM Red and HRP in the assay buffer were added and the incubation was prolonged (room temperature; 5 min). […] IC50 values were determined by regression analysis of the concentration/inhibition data.

MAO-B = target: T3, MAO-B (Homo sapiens, UniProt P27338); experiment: MAO-Glo assay, MAO-B inhibitory activity; conditions: Promega V1401; MAO-B 6 units/mL, substrate 16 µM; room temperature, 60 min; chemiluminescence; means ± S.D. of at least three experiments
T3 construct: purchased Sigma-Aldrich
T3 sequence (P27338 1-520): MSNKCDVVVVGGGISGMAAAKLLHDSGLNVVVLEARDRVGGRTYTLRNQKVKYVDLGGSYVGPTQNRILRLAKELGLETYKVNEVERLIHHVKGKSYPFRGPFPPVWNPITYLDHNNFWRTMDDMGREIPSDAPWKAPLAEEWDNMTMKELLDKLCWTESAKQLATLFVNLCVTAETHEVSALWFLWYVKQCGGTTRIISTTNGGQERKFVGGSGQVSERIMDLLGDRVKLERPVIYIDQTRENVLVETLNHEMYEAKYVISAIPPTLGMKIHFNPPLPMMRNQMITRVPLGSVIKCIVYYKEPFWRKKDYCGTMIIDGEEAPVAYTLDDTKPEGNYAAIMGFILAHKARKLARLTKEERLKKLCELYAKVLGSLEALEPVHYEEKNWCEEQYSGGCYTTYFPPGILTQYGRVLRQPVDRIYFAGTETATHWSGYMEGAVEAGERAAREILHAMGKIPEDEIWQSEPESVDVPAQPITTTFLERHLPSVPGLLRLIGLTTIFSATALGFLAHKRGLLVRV
Experimental: as §1, §2

Row | SMILES | MAO-A inactivation (MAO-A; peptides at 10 µM, PCPA as positive control) | IC50 (LSD1) | IC50 (MAO-B) | IC50 (MAO-A) | LSD1 selectivity (LSD1; LSD1 selectivity, MAO-A/MAO-B assayed for selectivity toward LSD1) | LSD1 inhibitory activity (LSD1)
1 | N[C@@H]1C[C@H]1c1ccccc1 (relative stereo) [PCPA, trans-2-phenylcyclopropylamine, reference compound] | inactivated both MAO-A and MAO-B | – | – | – | – | –
2 | C[C@H](N)C(=O)N[C@@H](CCCNC(=N)N)C(=O)NC1(C(=O)N[C@@H](CCCCN[C@@H]2C[C@H]2c2ccccc2)C(=O)NC2(C(=O)N[C@H](C(=O)N[C@@H](C)C(=O)N[C@@H](CCCNC(=N)N)C(=O)N[C@@H](CCCCN)C(=O)N[C@@H](CO)C(=O)N[C@H](C(=O)O)[C@@H](C)O)[C@@H](C)O)C3CC4CC(C3)CC2C4)C2CC3CC(C2)CC1C3 (stereo partly drawn) [2c] (H-AR[X1][Lys((1R,2S)-2-Ph-cPr)][X1]TARKST-OH; C-terminus assumed) | – | 0.0724 ± 0.004 µM | > 10 µM | > 10 µM | – | –
3 | C[C@H](N)C(=O)N[C@@H](CCCNC(=N)N)C(=O)NC1(C(=O)N[C@@H](CCCCN[C@@H]2C[C@H]2c2ccccc2)C(=O)NC2(C(=O)N[C@H](C(=O)N[C@@H](C)C(=O)N[C@@H](CCCNC(=N)N)C(=O)N[C@@H](CCCCN)C(=O)N[C@@H](CO)C(=O)N[C@H](C(=O)O)[C@@H](C)O)[C@@H](C)O)CCCCC2)CCCCC1 [peptide 2b] (H-AR[Ac6c][Lys((1R,2S)-2-Ph-cPr)][Ac6c]TARKST-OH; C-terminus assumed) | – | 0.0584 ± 0.0025 µM | > 10 µM | > 10 µM | > 170 fold | the most potent LSD1 inactivator among the peptides tested in this study
4 | C[C@H](N)C(=O)N[C@@H](CCCNC(=N)N)C(=O)N[C@H](C(=O)N[C@@H](CCCCN[C@@H]1C[C@H]1c1ccccc1)C(=O)N[C@@H](CCC(N)=O)C(=O)N[C@H](C(=O)N[C@@H](C)C(=O)N[C@@H](CCCNC(=N)N)C(=O)N[C@@H](CCCCN)C(=O)N[C@@H](CO)C(=O)N[C@H](C(=O)O)[C@@H](C)O)[C@@H](C)O)[C@@H](C)O [peptide 1, reference compound] | – | 0.126 ± 0.002 µM | > 10 µM | > 10 µM | – | inactivated LSD1 potently compared to PCPA
5 | C[C@H](N)C(=O)N[C@@H](CCCNC(=N)N)C(=O)NC(C)(C)C(=O)N[C@@H](CCCCN[C@@H]1C[C@H]1c1ccccc1)C(=O)NC(C)(C)C(=O)N[C@H](C(=O)N[C@@H](C)C(=O)N[C@@H](CCCNC(=N)N)C(=O)N[C@@H](CCCCN)C(=O)N[C@@H](CO)C(=O)N[C@H](C(=O)O)[C@@H](C)O)[C@@H](C)O [peptide 2a] (H-AR[Aib][Lys((1R,2S)-2-Ph-cPr)][Aib]TARKST-OH; C-terminus assumed) | – | 0.0891 ± 0.0053 µM | > 10 µM | > 10 µM | – | –
